“And” between values parts separate entries of the source, which are not always exact repeats. Equal values may be shown once. Read-outs that look alike come from different tables or passages of the source.
Tests used:
[1] = tested on: Acinetobacter baumannii 03.021.1 (GN_038), Colistin resistant; test: Synergy of cannabidiol with cell-wall disrupting agent (CBD MIC in combination, FICI); format: cell-based; conditions: for MIC: Acinetobacter baumannii
Experimental: (§1) The compounds were stored short term at 4° C.
(§2) Analysis was performed using Microsoft Excel.

[2] = tested on: Klebsiella pneumoniae ATCC 13883 (GN_003 / GN_004); test: as above; format: cell-based; conditions: Klebsiella pneumoniae ATCC 700603
Experimental: as §1, §2

[3] = Example 9, GN_038, listed as CBD
[4] = CBD with MCC_6442, listed as CBD

For C=C(C)C1CCC(C)=CC1c1c(O)cc(CCCCC)cc1O (centres unmarked) [Cannabidiol, 2-[3-methyl-6-(1-methylethenyl)-2-cyclohexen-1-yl]-5-pentyl-1,3-benzenediol], the MIC ([1]; read-out: CBD MIC with MCC_00636 at concentration 0.25 μg/mL, Example 8, GN_038) was 2 µg/mL, the MIC ([1]; read-out: CBD MIC with MCC_00636 at concentration 0.5 μg/mL, Example 8, GN_038) was 0.000977 µg/mL and the MIC ([1]; read-out: CBD MIC with MCC_00636 at concentration […], Example 8, GN_038) was 32 µg/mL. It also gave an MIC ([1]; read-out: CBD MIC with MCC_09222 at concentration 8 μg/mL, Example 9, GN_038) of 4 µg/mL, an MIC ([1]; read-out: CBD MIC with MCC_09222 at concentration 16 μg/mL, Example 9, GN_038) of 2 µg/mL and an MIC ([1]; read-out: CBD MIC with MCC_09222 at concentration 32 μg/mL, Example 9, GN_038) of 1 µg/mL. The MIC ([1]; read-out: CBD MIC with MCC_09222 at concentration 64 μg/mL, Example 9, GN_038) was 0.000977 µg/mL, the MIC ([1]; read-out: CBD MIC with MCC_09222 at concentration 128 μg/mL, Example 9, GN_038) was 0.000977 µg/mL and the “cannabidiol combined with Polymyxin B: synergy” value ([1]; Example 8) was “synergy”. The “CBD MIC with MCC_00636 at concentration 0.25 μg/mL” value ([1]; Example 8, GN_038, listed as CBD) was 4 µg/mL, the “cannabidiol in combination with MCC_09222: synergy” value ([1]; Example 9) was “synergistic effect” and the “CBD MIC with MCC_09222 at concentration 8 μg/mL” value [1, 3] was 2 µg/mL. The “CBD MIC with MCC_09222 at concentration 32 μg/mL” value [1, 3] was 0.5 µg/mL, the “FICI range (MIC table)” value ([2]; CBD with Cefotetan, listed as CBD) was 1-1.5 and 0.5-1.25 and the FICI ([2]; CBD with Ceftazidime at 4 μg/mL, listed as CBD) was 1. For the same compound, the FICI ([2]; CBD with Ceftazidime at 8 μg/mL, listed as CBD) was 1, the FICI ([2]; CBD with Ceftazidime at 16 μg/mL, listed as CBD) was 1.001 and 1 and the FICI ([2]; CBD with Ceftazidime at 32 μg/mL, listed as CBD) was 1.002 and 1.001. The FICI ([2]; CBD with Ceftazidime at 64 μg/mL, listed as CBD) was 0.00391 and 0.001957, the FICI ([2]; CBD with Ceftazidime at 128 μg/mL, listed as CBD) was 0.007816 and 0.00391 and the “FICI range (MIC table)” value ([2]; CBD with Ceftazidime) was 0-1. It also gave an FICI ([2]; CBD with Cefuroxime at 1 μg/mL) of 1.016, an FICI ([2]; CBD with Cefuroxime at 2 μg/mL) of 1.031 and an FICI ([2]; CBD with Cefuroxime at 4 μg/mL) of 1.0625. It also gave an FICI ([2]; CBD with Cefuroxime at 8 μg/mL) of 1.125, an FICI ([2]; CBD with Cefuroxime at 16 μg/mL) of 1.25 and an FICI ([2]; CBD with Cefuroxime at 32 μg/mL) of 0.5. The FICI ([2]; CBD with Colistin at 0.031 μg/mL) was 1.03, the FICI ([2]; CBD with Colistin at 0.062 μg/mL) was 1.06 and the FICI ([2]; CBD with Colistin at 0.25 μg/mL) was 1.25. For the same compound, the FICI ([2]; CBD with Colistin at 0.5 μg/mL) was 0.5, the FICI ([2]; CBD with Colistin at 1 μg/mL) was 1 and the “FICI range (MIC table)” value ([2]; CBD with Colistin) was 0.5-1.25. The “FICI range (Synergy table)” value ([2]; CBD with Colistin) was 0.5-1.25, the “FICI range (MIC table)” value [2, 4] was 0.25-1.13 and 0.13-1.06 and the “FICI range (Synergy table)” value [2, 4] was 0.25-0.5 and 0.13-0.25. For the same compound, the FICI ([2]; CBD with MCC_6442 at 0.25 μg/mL) was 1.031, the FICI ([2]; CBD with MCC_6442 at 0.25 μg/mL, listed as CBD) was 1.016 and the FICI ([2]; CBD with MCC_6442 at 0.5 μg/mL, listed as CBD) was 1.0625 and 1.031. For the same compound, the FICI ([2]; CBD with MCC_6442 at 1 μg/mL, listed as CBD) was 1.125 and 1.0625, the FICI ([2]; CBD with MCC_6442 at 2 μg/mL, listed as CBD) was 0.2539 and 0.1289 and the FICI ([2]; CBD with MCC_6442 at 4 μg/mL, listed as CBD) was 0.501 and 0.251. For the same compound, the FICI ([2]; CBD with Ticarcillin at 2 μg/mL) was 1.002, the FICI ([2]; CBD with Ticarcillin at 4 μg/mL) was 1.004 and the FICI ([2]; CBD with Ticarcillin at 16 μg/mL) was 1.016. The FICI ([2]; CBD with Ticarcillin at 32 μg/mL) was 1.031, the FICI ([2]; CBD with Ticarcillin at 64 μg/mL) was 1.0625 and the “FICI range (MIC table)” value ([2]; CBD with Ticarcillin) was 1-1.06. The “CBD MIC with Cefotetan” value ([2]; Cefotetan at 0.015 μg/mL) was over 256 µg/mL, the “CBD MIC with Cefotetan” value ([2]; Cefotetan at 0.031 μg/mL) was over 256 µg/mL and the “CBD MIC with Cefotetan” value ([2]; Cefotetan at 0.062 μg/mL) was over 256 µg/mL. For the same compound, the “CBD MIC with Cefotetan” value ([2]; Cefotetan at 0.25 μg/mL) was over 256 µg/mL, the “CBD MIC with Cefotetan” value ([2]; Cefotetan at 0.5 μg/mL) was 0.001 µg/mL and the “CBD MIC with Ceftazidime” value ([2]; Ceftazidime at 0.015 μg/mL as headed in Table 64) was over 256 µg/mL. The “CBD MIC with Ceftazidime” value ([2]; Ceftazidime at 0.031 μg/mL as headed in Table 64) was over 256 µg/mL, the “CBD MIC with Ceftazidime” value ([2]; Ceftazidime at 0.062 μg/mL as headed in Table 64) was over 256 µg/mL and the “CBD MIC with Ceftazidime” value ([2]; Ceftazidime at 0.25 μg/mL as headed in Table 64) was 0.001 µg/mL. The “CBD MIC with Ceftazidime” value ([2]; Ceftazidime at 0.5 μg/mL as headed in Table 64) was 0.001 µg/mL and the “CBD MIC with Ceftazidime” value ([2]; Ceftazidime at 4 μg/mL (Table 66)) was over 32 µg/mL.

Reference: US20230013669A1, “Antibacterial Treatment Using a Cannabinoid and an Active Agent” (priority 2019, published 2023)
